ChEMBL document CHEMBL5724914, “Linking interpersonal differences in gut microbiota composition and drug biotransformation activity” (2024)

Key:
[1] = The drug is tested on WLS-220 corresponding to human gut metagenome with ENA study accession number: PRJEB37062 and ENA sample accession number: ERS12561769 for biotransformation under anaerobic condition. The drug concentrations were measured over 9 timepoints collected between 0 and 24 hours of incubation by liquid-chromatography-coupled mass spectrometry (LC–MS); details: 2 µM
[2] = The drug is tested on WLS-086 corresponding to human gut metagenome with ENA study accession number: PRJEB37062 and ENA sample accession number: ERS12561752 for biotransformation under anaerobic condition. The drug concentrations were measured over 9 timepoints collected between 0 and 24 hours of incubation by liquid-chromatography-coupled mass spectrometry (LC–MS); details: 2 µM
[3] = The drug is tested on Z-023 corresponding to metagenome with ENA study accession number: PRJEB37062 and ENA sample accession number: ERS12561822 for biotransformation under anaerobic condition. The drug concentrations were measured over 9 timepoints collected between 0 and 24 hours of incubation by liquid-chromatography-coupled mass spectrometry (LC–MS); details: 2 µM
[4] = The drug is tested on Z-018 corresponding to pig gut metagenome with ENA study accession number: PRJEB37062 and ENA sample accession number: ERS12561817 for biotransformation under anaerobic condition. The drug concentrations were measured over 9 timepoints collected between 0 and 24 hours of incubation by liquid-chromatography-coupled mass spectrometry (LC–MS); details: 2 µM
[5] = human gut metagenome, 24 h, 2 µM
[6] = The drug is tested on Z-010 corresponding to metagenome with ENA study accession number: PRJEB37062 and ENA sample accession number: ERS12561810 for biotransformation under anaerobic condition. The drug concentrations were measured over 9 timepoints collected between 0 and 24 hours of incubation by liquid-chromatography-coupled mass spectrometry (LC–MS); details: 2 µM
[7] = The drug is tested on Z-009 corresponding to pig gut metagenome with ENA study accession number: PRJEB37062 and ENA sample accession number: ERS12561809 for biotransformation under anaerobic condition. The drug concentrations were measured over 9 timepoints collected between 0 and 24 hours of incubation by liquid-chromatography-coupled mass spectrometry (LC–MS); details: 2 µM
[8] = human gut metagenome, 24 h, 2 µM; remark: listed apart in the source
[9] = The drug is tested on Z-021 corresponding to metagenome with ENA study accession number: PRJEB37062 and ENA sample accession number: ERS12561820 for biotransformation under anaerobic condition. The drug concentrations were measured over 9 timepoints collected between 0 and 24 hours of incubation by liquid-chromatography-coupled mass spectrometry (LC–MS); details: 2 µM
[10] = human gut metagenome, 24 h, 2 µM; remark: listed apart in the source
[11] = The drug is tested on Z-026 corresponding to metagenome with ENA study accession number: PRJEB37062 and ENA sample accession number: ERS12561825 for biotransformation under anaerobic condition. The drug concentrations were measured over 9 timepoints collected between 0 and 24 hours of incubation by liquid-chromatography-coupled mass spectrometry (LC–MS); details: 2 µM
[12] = human gut metagenome, 24 h, 2 µM; remark: listed apart in the source
[13] = The drug is tested on WLS-310 corresponding to human gut metagenome with ENA study accession number: PRJEB37062 and ENA sample accession number: ERS12561785 for biotransformation under anaerobic condition. The drug concentrations were measured over 9 timepoints collected between 0 and 24 hours of incubation by liquid-chromatography-coupled mass spectrometry (LC–MS); details: 2 µM
[14] = human gut metagenome, 24 h, 2 µM; remark: listed apart in the source
[15] = The drug is tested on Z-028 corresponding to mouse gut metagenome with ENA study accession number: PRJEB37062 and ENA sample accession number: ERS12561827 for biotransformation under anaerobic condition. The drug concentrations were measured over 9 timepoints collected between 0 and 24 hours of incubation by liquid-chromatography-coupled mass spectrometry (LC–MS); details: 2 µM
[16] = human gut metagenome, 24 h, 2 µM; remark: listed apart in the source
[17] = The drug is tested on WLS-038 corresponding to human gut metagenome with ENA study accession number: PRJEB37062 and ENA sample accession number: ERS12561745 for biotransformation under anaerobic condition. The drug concentrations were measured over 9 timepoints collected between 0 and 24 hours of incubation by liquid-chromatography-coupled mass spectrometry (LC–MS); details: 2 µM
[18] = The drug is tested on WLS-090 corresponding to human gut metagenome with ENA study accession number: PRJEB37062 and ENA sample accession number: ERS12561753 for biotransformation under anaerobic condition. The drug concentrations were measured over 9 timepoints collected between 0 and 24 hours of incubation by liquid-chromatography-coupled mass spectrometry (LC–MS); details: 2 µM
[19] = human gut metagenome, 24 h, 2 µM; remark: listed apart in the source
[20] = The drug is tested on Z-024 corresponding to pig gut metagenome with ENA study accession number: PRJEB37062 and ENA sample accession number: ERS12561823 for biotransformation under anaerobic condition. The drug concentrations were measured over 9 timepoints collected between 0 and 24 hours of incubation by liquid-chromatography-coupled mass spectrometry (LC–MS); details: 2 µM
Note: call rule not given here.

CC#C[C@]1(O)CC[C@H]2[C@@H]3CCC4=CC(=O)CCC4=C3[C@@H](c3ccc(N(C)C)cc3)C[C@@]21C [MIFEPRISTONE]
Bacterial Biotransformation [1]: Compound metabolized | Bacterial Biotransformation [2]: Compound metabolized | Bacterial Biotransformation [3]: Compound NOT metabolized | Bacterial Biotransformation [4]: Compound metabolized | Bacterial Biotransformation [5]: Compound NOT metabolized | Bacterial Biotransformation [6]: Compound metabolized | Bacterial Biotransformation [7]: Compound metabolized | Bacterial Biotransformation [8]: Compound NOT metabolized | Bacterial Biotransformation [9]: Compound NOT metabolized | Bacterial Biotransformation [10]: Compound NOT metabolized | Bacterial Biotransformation [11]: Compound NOT metabolized | Bacterial Biotransformation [12]: Compound NOT metabolized | Bacterial Biotransformation [13]: Compound metabolized | Bacterial Biotransformation [14]: Compound metabolized | Bacterial Biotransformation [15]: Compound NOT metabolized | Bacterial Biotransformation [16]: Compound NOT metabolized | Bacterial Biotransformation [17]: Compound metabolized | Bacterial Biotransformation [18]: Compound metabolized | Bacterial Biotransformation [19]: Compound metabolized | Bacterial Biotransformation [20]: Compound metabolized

COc1ccc2c(c1)c(CC(=O)O)c(C)n2C(=O)c1ccc(Cl)cc1 [INDOMETHACIN]
Bacterial Biotransformation [1]: Compound metabolized | Bacterial Biotransformation [2]: Compound metabolized | Bacterial Biotransformation [3]: Compound NOT metabolized | Bacterial Biotransformation [4]: Compound metabolized | Bacterial Biotransformation [5]: Compound metabolized | Bacterial Biotransformation [6]: Compound NOT metabolized | Bacterial Biotransformation [7]: Compound NOT metabolized | Bacterial Biotransformation [8]: Compound metabolized | Bacterial Biotransformation [9]: Compound NOT metabolized | Bacterial Biotransformation [10]: Compound metabolized | Bacterial Biotransformation [11]: Compound NOT metabolized | Bacterial Biotransformation [12]: Compound metabolized | Bacterial Biotransformation [13]: Compound metabolized | Bacterial Biotransformation [14]: Compound metabolized | Bacterial Biotransformation [15]: Compound NOT metabolized | Bacterial Biotransformation [16]: Compound metabolized | Bacterial Biotransformation [17]: Compound metabolized | Bacterial Biotransformation [18]: Compound metabolized | Bacterial Biotransformation [19]: Compound metabolized | Bacterial Biotransformation [20]: Compound NOT metabolized

CCOc1ccc2nc(S(N)(=O)=O)sc2c1 [ETHOXZOLAMIDE]
Bacterial Biotransformation [1]: Compound NOT metabolized | Bacterial Biotransformation [2]: Compound metabolized | Bacterial Biotransformation [3]: Compound NOT metabolized | Bacterial Biotransformation [4]: Compound NOT metabolized | Bacterial Biotransformation [5]: Compound NOT metabolized | Bacterial Biotransformation [6]: Compound NOT metabolized | Bacterial Biotransformation [7]: Compound NOT metabolized | Bacterial Biotransformation [8]: Compound NOT metabolized | Bacterial Biotransformation [9]: Compound metabolized | Bacterial Biotransformation [10]: Compound NOT metabolized | Bacterial Biotransformation [11]: Compound NOT metabolized | Bacterial Biotransformation [12]: Compound NOT metabolized | Bacterial Biotransformation [13]: Compound NOT metabolized | Bacterial Biotransformation [14]: Compound NOT metabolized | Bacterial Biotransformation [15]: Compound NOT metabolized | Bacterial Biotransformation [16]: Compound NOT metabolized | Bacterial Biotransformation [17]: Compound NOT metabolized | Bacterial Biotransformation [18]: Compound metabolized | Bacterial Biotransformation [19]: Compound NOT metabolized | Bacterial Biotransformation [20]: Compound NOT metabolized

O=C(O)CCC(=O)O.O=C(O[C@H]1CN2CCC1CC2)N1CCc2ccccc2[C@@H]1c1ccccc1 [SOLIFENACIN SUCCINATE]
Bacterial Biotransformation [1]: Compound NOT metabolized | Bacterial Biotransformation [2]: Compound metabolized | Bacterial Biotransformation [3]: Compound metabolized | Bacterial Biotransformation [4]: Compound metabolized | Bacterial Biotransformation [5]: Compound metabolized | Bacterial Biotransformation [6]: Compound metabolized | Bacterial Biotransformation [7]: Compound metabolized | Bacterial Biotransformation [8]: Compound metabolized | Bacterial Biotransformation [9]: Compound metabolized | Bacterial Biotransformation [10]: Compound metabolized | Bacterial Biotransformation [11]: Compound NOT metabolized | Bacterial Biotransformation [12]: Compound metabolized | Bacterial Biotransformation [13]: Compound NOT metabolized | Bacterial Biotransformation [14]: Compound NOT metabolized | Bacterial Biotransformation [15]: Compound NOT metabolized | Bacterial Biotransformation [16]: Compound NOT metabolized | Bacterial Biotransformation [17]: Compound metabolized | Bacterial Biotransformation [18]: Compound metabolized | Bacterial Biotransformation [19]: Compound metabolized | Bacterial Biotransformation [20]: Compound metabolized

CC(=O)Nc1ccc(OC(C)=O)cc1 [DIACETAMATE]
Bacterial Biotransformation [1]: Compound metabolized | Bacterial Biotransformation [2]: Compound metabolized | Bacterial Biotransformation [3]: Compound metabolized | Bacterial Biotransformation [4]: Compound metabolized | Bacterial Biotransformation [5]: Compound metabolized | Bacterial Biotransformation [6]: Compound metabolized | Bacterial Biotransformation [7]: Compound metabolized | Bacterial Biotransformation [8]: Compound metabolized | Bacterial Biotransformation [9]: Compound metabolized | Bacterial Biotransformation [10]: Compound metabolized | Bacterial Biotransformation [11]: Compound metabolized | Bacterial Biotransformation [12]: Compound metabolized | Bacterial Biotransformation [13]: Compound metabolized | Bacterial Biotransformation [14]: Compound metabolized | Bacterial Biotransformation [15]: Compound metabolized | Bacterial Biotransformation [16]: Compound metabolized | Bacterial Biotransformation [17]: Compound metabolized | Bacterial Biotransformation [18]: Compound metabolized | Bacterial Biotransformation [19]: Compound metabolized | Bacterial Biotransformation [20]: Compound metabolized
